Laboratory results reported in patent publication EP4782434A1, “N-SULFONYL CARBOXAMIDE COMPOUND, AND PREPARATION METHOD THEREFOR AND USE THEREOF” (Nutshell Therapeutics (Shanghai) Co., Ltd., priority 2023, dated 2025).

Columns and labels:
[1] = molecular target: T1, Polθ ATPase (Homo sapiens, UniProt O75417); assay: Polθ ATPase activity assay (ADP-Glo Kinase Assay kit); assay type: biochemical; settings: truncated POLQ-N protein (aa 1-894) 1 nM, 50 nM ssDNA, 50 µM ATP
T1 construct: purified truncated POLQ-N protein (aa 1-894, N-terminal 6-His tag); 6-His (N)
T1 sequence (O75417 1-894): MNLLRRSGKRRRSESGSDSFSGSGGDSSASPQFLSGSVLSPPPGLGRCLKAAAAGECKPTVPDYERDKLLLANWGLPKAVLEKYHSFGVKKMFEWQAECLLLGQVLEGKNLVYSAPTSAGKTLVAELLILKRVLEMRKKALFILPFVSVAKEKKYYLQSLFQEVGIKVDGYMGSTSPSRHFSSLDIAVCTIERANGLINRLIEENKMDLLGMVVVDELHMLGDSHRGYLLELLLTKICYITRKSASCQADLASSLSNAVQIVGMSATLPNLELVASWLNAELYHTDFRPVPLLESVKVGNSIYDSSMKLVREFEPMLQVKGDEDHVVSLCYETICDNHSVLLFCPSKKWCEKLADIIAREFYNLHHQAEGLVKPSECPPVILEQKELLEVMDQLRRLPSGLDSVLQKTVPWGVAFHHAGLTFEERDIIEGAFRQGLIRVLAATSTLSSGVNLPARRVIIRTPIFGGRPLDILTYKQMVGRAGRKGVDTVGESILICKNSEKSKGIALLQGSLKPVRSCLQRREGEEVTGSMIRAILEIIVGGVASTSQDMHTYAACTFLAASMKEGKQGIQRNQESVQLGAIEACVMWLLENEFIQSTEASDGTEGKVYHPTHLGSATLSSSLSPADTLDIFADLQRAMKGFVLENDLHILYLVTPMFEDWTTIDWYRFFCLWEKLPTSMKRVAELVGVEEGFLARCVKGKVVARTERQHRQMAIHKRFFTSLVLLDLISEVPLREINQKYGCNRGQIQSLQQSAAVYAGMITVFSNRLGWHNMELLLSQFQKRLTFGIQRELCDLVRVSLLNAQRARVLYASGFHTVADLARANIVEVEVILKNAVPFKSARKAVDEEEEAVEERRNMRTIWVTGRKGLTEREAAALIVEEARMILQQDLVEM
Procedure: The inhibitory efficiency of the compounds of formula (I) against Polθ ATPase activity was determined using the ADP-Glo Kinase Assay kit (Promega, V9101). […] The starting (final) concentration was 100 nM, followed by a 3-fold serial dilution for a total of 10 concentration points in duplicate (n=2). 5 μL of purified […], N-terminal 6-His tag) was added to each well. After centrifugation at 1000 rpm for 1 minute, the plate was incubated at 25°C for 10 minutes. 5 μL of substrate reaction solution (containing ATP & ssDNA) was added to each well, and the reaction was carried out at 25°C for 60 minutes. 5 μL of ADP-Glo Reagent was added to each well. After centrifugation at 1000 rpm for 1 minute, the plate was incubated at 25°C for 40 minutes. 10 μL of detection solution was added to each well. After centrifugation at 1000 rpm for 1 minute, the plate was incubated at 25°C for 40 minutes. Luminescence signals were recorded using a microplate reader (BMG, PHERAstar FSX). The final reaction system contained 1 nM of POLQ-N enzyme; 50 nM of ssDNA ([NT]); 50 μM of ATP; and 1% DMSO. The inhibition percentage (%) of the compound at each concentration was calculated using the RFU values normalized against the control wells within each assay plate. Table 1: Inhibitory activity of compounds against Polθ ATPase

[2] = test system: Theta-mediated end joining (TMEJ) process in HEK293T cells; assay: TMEJ reporter assay (NanoGlo luciferase); assay type: cell-based; settings: Homo sapiens, HEK-293T, HEK293T cells electroporated with TMEJ substrate, 24 hours
Procedure: The inhibitory effect of the compounds on the Theta-mediated end joining (TMEJ) process was evaluated.
(1) HEK293T cells were cultured in DMEM supplemented with 10% heat-inactivated fetal bovine serum (FBS) and 1% penicillin-streptomycin (PS). (2) Prior to startup, the Neon transfection system was disinfected, and E2 and R buffers were equilibrated to room temperature. (3) Culture medium without antibiotics was pre-warmed. (4) Cells in the flask reaching 80-90% confluency were trypsinized, neutralized with culture medium, centrifuged, and counted. (5) For transfection using a 100 µL electroporation tip, 2 × 10^6 cells were taken, washed once with DPBS (without Mg^2+ and Ca^2+), centrifuged at 1000 rpm for 5 min, and the supernatant was discarded. The number of cells and volume may be increased as required. (6) The Neon system was set up; a Neon tube was inserted into the Neon pipette and E2 buffer was added. (7) 10 µg of TMEJ substrate was added to 100 µL of R solution; the volume may be increased as required. (8) Cells were resuspended in DNA buffer, and electroporation was initiated according to the following parameters:
(9) The cells were loaded into antibiotic-free culture medium and mixed gently. (10) Steps (8)-(9) were repeated as necessary, and cells were seeded into 384-well plates at a density of 40,000 cells/well in 40 µL of culture medium. (11) The plates were incubated in a humidified CO2 incubator at 37°C for 24 hours. (12) NanoGlo reagent was warmed to room temperature, and NanoGlo buffer was mixed with the substrate at a ratio of 50:1. (13) The cell culture plates were equilibrated at room temperature for 10 minutes. (14) 40 µL of NanoGlo substrate buffer was added to each well, followed by shaking at 300 rpm for 3 minutes protected from light. (15) Signals were read via a BMG PHERAstar FSX.

[3] = test system: DLD-1 BRCA2-/- cells; assay: DLD-1 BRCA2-/- cell proliferation assay (CellTiter-Glo, 10 days incubation); assay type: cell-based; settings: Homo sapiens, 240 h, DLD-1 BRCA2-/- cell line, total incubation period of 10 days, read-out: DLD1 BRCA2^-/- IC50
Excerpt: The anti-proliferative effect of the compounds on the human colorectal adenocarcinoma cell line DLD-1 BRCA2^-/- method.
• DLD-1 (purchased from ATCC, Cat. No.: CCL-221, Batch No.: 70033255); • RPMI1640 (purchased from Invitrogen, Cat. No.: 11875-085); • 0.25% Trypsin-EDTA (purchased from Invitrogen, Cat. No.: 25200-072); • Penicillin-Streptomycin solution (purchased from Hyclone, Cat. No.: SV30010); • FBS (purchased from BI, Cat. No.: 04-002-1A); • DMSO (purchased from Sigma, Cat. No.: D4540-1L); • 96-well plate (purchased from Corning, Cat. No.: CLS3903); • CellTiter-Glo reagent (purchased from Promega, Cat. No.: G7558).
The anti-proliferative effect of the compounds on a human colorectal adenocarcinoma cell line was evaluated using an ATP quantification method, wherein the measured activity correlates well with the number of viable cells. The genetically edited cell line DLD-1 BRCA2^-/- was cultured in RPMI 1640 medium (Invitrogen, 11875-085) supplemented with 10% (v/v) fetal bovine serum (BI, 04-002-1A). The cell line was cultured according to the standard instructions of the American Type Culture Collection (ATCC) and identified via short tandem repeat (STR) genotyping.
In the proliferation assay, cells were harvested and resuspended in cell culture medium. Cell density was determined using a cell counter. An appropriate volume of cell suspension was aspirated from the centrifuge tube to prepare a plating working solution (150 cells/100 µL for the DLD-1 BRCA2^-/- cell line). 100 µL of the cell suspension was seeded into each well of a 96-well plate (Corning, 3603) and incubated overnight in an incubator. The diluted test compound solutions were added to the wells. On the fourth and seventh days of compound incubation, the medium was replaced with fresh culture medium, and the compounds were re-administered, for a total incubation period of 10 days. Following incubation, the cell culture plates were removed and equilibrated to room temperature. 100 µL of CellTiter-Glo (Promega, G7558) was added to each well, and the plate was incubated at room temperature for 30 minutes. Data were read using a microplate reader (PerkinElmer, Enspire) in 96-well luminescence mode. Data analysis, curve fitting, and reporting were performed using the dose-response one-site 205 model of IDBS XL fit. Table 2: Proliferation inhibitory activity of compounds against DLD-1 BRCA2-/- cells

| SMILES | IC50 ([1]; class symbols) [nM] | IC50 ([1]; specific values) [nM] | IC50 [3] [nM] | IC50 [2] [nM] |
| --- | --- | --- | --- | --- |
| COc1cnc(C(F)F)cc1-c1cc(C)ccc1C(=O)NS(=O)(=O)Cc1ccc([C@@H](C)OC)cc1 [cpd-8, (R)-2-(2-(Difluoromethyl)-5-methoxypyridin-4-yl)-N-((4-(1-methoxyethyl)benzyl)sulfonyl)-4-methylbenzamide] | ≤ 2 | 0.72 | 57 | 2 |
| [2H]C([2H])([2H])O[C@@H](C)c1ccc(CS(=O)(=O)NC(=O)c2ccc(C([2H])([2H])[2H])cc2-c2cc(C(F)F)c(F)cc2OC)cc1 [cpd-21, (S)-5'-(Difluoromethyl)-4'-fluoro-2'-methoxy-N-((4-(1-(methoxy-d3)ethyl)benzyl)sulfonyl)-5-(methyl-d3)-[1,1'-biphenyl]-2-carboxamide] | ≤ 2 | 1.5 | 5.2 | 2.3 |

Further lines, with some results ahead:

| IC50 ([1]; class symbols) [nM] | IC50 ([1]; specific values) [nM] | IC50 [3] [nM] | SMILES | IC50 [2] [nM] |
| --- | --- | --- | --- | --- |
| ≤ 2 | 1.1 | 48 | [2H]c1c([2H])c([C@H](C)OC([2H])([2H])[2H])c([2H])c([2H])c1CS(=O)(=O)NC(=O)c1ccc(C([2H])([2H])[2H])cc1-c1cc(Cl)ncc1OC [cpd-22, (S)-2-(2-Chloro-5-methoxypyridin-4-yl)-N-(4-(1-(methoxy-d3)ethyl)(phenyl-2,3,5,6-d4)methylsulfonyl)-4-(methyl-d3)benzamide] | 1.3 |
| ≤ 2 | 0.53 | 99 | COc1ccc(C(F)F)cc1-c1cc(CC(=O)N(C)C)ccc1C(=O)NS(=O)(=O)Cc1ccc(C(C)C)cc1 [cpd-11, 5'-(Difluoromethyl)-5-(2-(dimethylamino)-2-oxoethyl)-N-((4-isopropylbenzyl)sulfonyl)-2'-methoxy-[1,1'-biphenyl]-2-carboxamide] | 2 |
| ≤ 2 | 0.5 | 27 | COc1ccc(C(F)F)cc1-c1cc(C)ncc1C(=O)NS(=O)(=O)Cc1ccc([C@H](C)OC)cc1 [cpd-5, (S)-4-(5-(Difluoromethyl)-2-methoxyphenyl)-N-((4-(1-methoxyethyl)benzyl)sulfonyl)-6-methylnicotinamide] | 1 |
